The experiment has as its system CEM cells HIV-1 protection, formazan growth assay. The experiment can be described thus: NCI AIDS Antiviral Assay. The note with it: for pIC50: measured here: growth of uninfected CEM cells. Put shortly:
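Category rules: moderately active means at least 50% protection on retest, and confirmed active means 100% protection reproducibly. The underlying data came from a formazan growth assay in HIV-1-infected CEM cells.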

pEC50, pIC50: −log10 of the molar value. Active and inactive are the calls of the source.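 Rule for the calls: active = compounds giving half or more protection of infected cells from virus-caused growth loss, again on retest; inactive = the rest.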

For the compound `CN1CCN=C(c2ccccc2)c2cc(Cl)ccc21`, the pEC50 is less than 3.70 and the pIC50 was 3.98.

`COc1ccccc1N1C(=O)CSC1=Nc1ccccc1`: the pEC50 is less than 3.95 and the pIC50 was less than 3.95.

For `COc1ccc(-c2cc(NC(=O)c3cnccn3)c(=O)oc2C)cc1`, the pEC50 was less than 3.70 and the pIC50 was 3.77. For `Cc1c(C)c2c(c(N)c1C#N)C(=O)N(OS(=O)(=O)c1ccccc1)C2=O`, the pEC50 is less than 3.82 and the pIC50 was 4.59. Consider `CCC[CH2][Ge]([CH2]CCC)([CH2]CCC)[O]C(=O)C(O)c1ccccc1` (stereo unspecified), for which the pEC50 is 5.31 and the pIC50 was 4.92. For `N#Cc1c(O)c(N=Nc2ccc(Cl)cc2)c(=O)n2c1[nH]c1ccccc12`, the pEC50 was less than 3.70 and the negative-log IC50 (pIC50) was 4.27. As for `CC1NOC(=O)C1N=Nc1ccccc1Br` (stereo unspecified), the pEC50 was less than 4.18 and the pIC50 was 4.20. In the same order, the values of `COc1ccccc1C1(c2c(OC)c(=O)c2=O)SCCCS1` are less than 3.70 and less than 3.70.

Consider `CC(=O)N(C(C)=O)c1cnc2c(nc3cc(C)ccn32)c1C`, for which the pEC50 is less than 3.70 and the pIC50 was 4.28.

With `CC12CCC([C@H](Nc3cc(C(F)(F)F)cc(C(F)(F)F)c3)C1=O)C2(C)C` (stereo partly specified), the pEC50 was less than 4.70 and the pIC50 was less than 4.70.

Consider `CC(C)CCC[C@@H](C)[C@H]1CC[C@H]2[C@@H]3CC[C@H]4CC5(C[C@]4(C)[C@H]3CC[C@]12C)Nc1ccccc1S5` (stereo partly specified), for which the pEC50 was less than 4.70 and the pIC50 was less than 4.70.

Consider `CC(C)=CCCC(C)CCN(O)CC(CO)OC(CO)n1cc(C)c(=O)[nH]c1=O` (stereo unspecified), for which the pEC50 is less than 3.70 and the pIC50 is 3.87. With `CN(C)c1nc(=Nc2cccc(Cl)c2)ss1`, the result was inactive. Still for that read-out and setting: for `O=C(O)COc1ccc2c3c1C(=O)CCC3CO2` (stereo unspecified) the value was “inactive”. For the compound `CC1CCC2C(C)C(=O)OC3OC4(C)CCC1C32OO4` (stereo unspecified), the pEC50 is less than 3.34 and the pIC50 is 3.54. In the same order, the values of `O=C1C=C(Nc2cccnc2)c2ccccc2C1=O` are less than 4.68 and 4.74.

Regarding `COc1ccccc1NC(=S)Nc1cccc(C)n1`, the pEC50 is 4.78 and the pIC50 is 4.21. For `COc1cc2cnc3c4cc(OC)c(OC)cc4ccc3c2cc1OC`, the outcome was inactive.

On to `COC(=O)[C@](C)(Cc1ccccc1)NC(=O)[C@@H](C)N1[C@@H](c2ccccc2)COC1(C)C`, for which the pEC50 is less than 3.70 and the pIC50 is less than 3.70.

In the case of `Brc1ccc2[nH]c3nc(N/N=C/c4cccs4)nnc3c2c1`, the pEC50 is less than 3.70 and the pIC50 is less than 3.70. In the case of `N#C/C(=C\c1ccccc1)c1nc(-c2cc3ccccc3oc2=O)cs1`, the pEC50 is less than 3.82 and the pIC50 was less than 3.82. Consider `CS(=O)(=O)C(C#N)c1nc2ccccc2nc1Cl` (stereo unspecified), for which the pEC50 was less than 3.70 and the pIC50 is less than 3.70. For `O=C1Sc2ccccc2C(=O)N2C1CSC2c1ccccc1` (stereo unspecified), the pEC50 is less than 3.70 and the pIC50 is less than 3.70. Turning to `O=P(O)(O)C1CCCC(P(=O)(O)O)N1` (stereo unspecified), the result was inactive. For the compound `CCOC(=O)/C(=C\c1ccc(C(=O)OC)cc1)[Se]c1ccccc1`, the pEC50 is less than 4.18 and the pIC50 is 4.21.

On to `CC/C=C\C/C=C\C/C=C\CCCCCCCC(=O)NC(CCC(N)=O)C(=O)O` (stereo unspecified), for which the pEC50 is less than 3.70 and the pIC50 was 4.36. For `CC12CCC(C(=O)O1)C(C)(C)O2` (stereo unspecified), the pEC50 was less than 3.70 and the pIC50 is less than 3.70. With `O=C(NNC(=S)Nc1cccc(Cl)c1)c1cc(-c2ccccc2)nc2ccccc12`, the pEC50 was less than 3.70 and the negative logarithm of the IC50 (pIC50) was 4.92. For `COC1/C=C/OC2(C)Oc3c(C)c(O)c4c(O)c(cc(OCC(=O)N5CCC(O)(Cc6ccccc6)CC5)c4c3C2=O)NC(=O)/C(C)=C/C=CC(C)C(O)C(C)C(O)C(C)C(OC(C)=O)C1C` (stereo unspecified), in that order: less than 3.95 and 4.51. In the same order, the values of `Cc1ccnc(SC(F)(F)c2nc3ccccc3o2)n1` are 6.58 and 5.70.

Source of the values: PubChem BioAssay AID179 (DTP/NCI, 2004).
